Assay results: PubChem BioAssay (NCI)
Several values for one entry are separate records, joined by “and”; a condition that tells them apart may be missing. Identical values can stand only once.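 Assay format: 96-well plates, 48-hour exposure. GI50 = concentration required for 50% inhibition of growth. TGI marks complete inhibition of growth.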 Where a SMILES comes first, the peptide text is derived from it. [ ]: non-standard residue; d: D form. Phe(F5) = N[CH](Cc1c(F)c(F)c(F)c(F)c1F)C(=O)O

What was measured:
Assay in all cases: NCI tumour cell line growth inhibition, 48 h
MDA-N = system: MDA-N
XF 498 CNS = system: XF 498 CNS
RXF-631 renal = system: RXF-631 renal
DLD-1 colon = system: DLD-1 colon
DMS 114 small cell lung = system: DMS 114 small cell lung
LXFL 529 NSCLC = system: LXFL 529 NSCLC
KM20L2 colon = system: KM20L2 colon
HOP-18 NSCLC = system: HOP-18 NSCLC
DMS 273 small cell lung = system: DMS 273 small cell lung
P388/ADR leukemia = system: P388/ADR leukemia
P388 leukemia = system: P388 leukemia

| Structure (SMILES) | TGI (MDA-N) | TGI (XF 498 CNS) | TGI (DLD-1 colon) | TGI (DMS 114 small cell lung) | TGI (LXFL 529 NSCLC) | TGI (KM20L2 colon) | TGI (HOP-18 NSCLC) | TGI (DMS 273 small cell lung) | further results |
| --- | --- | --- | --- | --- | --- | --- | --- | --- | --- |
| CC1=CC(=O)c2c(O)cccc2C1=O | 3.23 µM | – | – | – | – | – | – | – | – |
| C=C(C)[C@@H]1CC=C(CO)CC1 | > 10 µM | 680 µM | 922 µM | 709 µM | 1320 µM | 945 µM | – | – | TGI (RXF-631 renal): 1210 µM |
| CS(=O)(=O)CC1=Nc2nnc(CCCCCCCc3nnc4n3C(=O)C(CS(C)(=O)=O)=N4)n2C1=O | – | > 100 µM | – | > 100 µM | > 100 µM | > 100 µM | > 100 µM | – | – |
| O=C(CCn1[nH]c(=O)c(Cl)c(Cl)c1=O)NOCCCc1ccccc1 | – | > 100 µM | > 100 µM | – | > 100 µM | > 100 µM | > 100 µM | > 100 µM | TGI (RXF-631 renal): > 100 µM |
| CC(=O)[O][Pb]([O]C(C)=O)([c]1ccccc1)[c]1ccccc1 | – | – | > 100 µM | 4.16 µM | > 100 µM | > 100 µM | > 100 µM | > 100 µM | GI50 (DLD-1 colon): 6.38 µM; GI50 (DMS 114 small cell lung): 1.44 µM; GI50 (LXFL 529 NSCLC): 5.57 µM; GI50 (KM20L2 colon): 9.34 µM; GI50 (HOP-18 NSCLC): 6.5 µM; GI50 (DMS 273 small cell lung): 2.88 µM |
| O=C(O)CSSCC(=O)O | > 100 µM | – | – | – | – | – | – | – | – |
| O=C(O)[C@@H]1C2CC([C@@H]1C(=O)O)[C@H](N1C(=O)CCC1=O)[C@@H]2Br (stereo not given in full) | > 100 µM | – | – | – | – | – | – | – | – |
| CCc1ccc(NCc2cc(OC)c(OC)c(OC)c2)cc1 | 1.17 µM and 0.772 µM | 21.7 µM and 53.9 µM | > 100 µM | 4.9 µM and 10.2 µM | 14 µM and 65.4 µM | 1.32 µM and 1.64 µM | > 100 µM | 13 µM | GI50 (MDA-N): < 0.01 µM; GI50 (LXFL 529 NSCLC): 0.523 µM and 1.57 µM; GI50 (HOP-18 NSCLC): 3.4 µM and 27.6 µM; GI50 (DMS 273 small cell lung): 0.19 µM and 0.628 µM |
| COC12C=CC(CC1)c1c(O)ccc(O)c12 (stereo not given) | – | 44 µM | > 100 µM | > 100 µM | > 71.3 µM | > 100 µM | > 100 µM | > 87 µM | – |
| O=C(O)CS(=O)(=O)C(c1ccccc1)c1ccccc1 | > 100 µM | – | – | – | – | – | – | – | – |
| CC[C@](C)(O)C(=O)O[C@H]1C(=O)O[C@@H]2C[C@H]3C(C)=CC(=O)[C@@H](O)[C@]3(C)[C@H]3[C@@]4(O)OC[C@]32[C@@H]1[C@@H](C)[C@H]4O | 2.29 µM | – | – | < 0.0257 µM | 0.0317 µM | 4.77 µM and 16.9 µM | 0.977 µM and 3.23 µM | 0.0425 µM and 0.205 µM | TGI (RXF-631 renal): 2.77 µM; TGI (P388/ADR leukemia): 9.5 µM; GI50 (DMS 114 small cell lung): < 0.0124 µM; TGI (P388 leukemia): 0.198 µM; GI50 (KM20L2 colon): 0.267 µM and 0.136 µM; GI50 (HOP-18 NSCLC): 0.162 µM and 0.359 µM; GI50 (DMS 273 small cell lung): 0.0127 µM |
| Nc1cc(=O)[nH]c(SC2=NC(N)CC(O)C2)n1 (stereo not given) | – | > 100 µM | > 100 µM | > 100 µM | > 100 µM | > 100 µM | > 100 µM | > 100 µM | – |
| CC12CCC(=O)C=C1CCC1C2CCC2(C)C(C(=O)Cn3cnc4c(=S)nc[nH]c43)CCC12 (stereo not given) | > 100 µM | – | – | – | – | – | – | – | – |
| COC(=O)[C@@H]1CSC(=S)N1C(=O)C[C@H]1CC=CC[C@H]1CC(=O)Sc1ccccc1 | – | 34.5 µM | 35.3 µM | – | 30.5 µM | 39 µM | 61.1 µM | 44.1 µM | – |
| Cn1c(=O)c2[nH]c(/N=N/N3CCN(CCO)CC3)nc2n(C)c1=O | > 100 µM | – | – | – | – | – | – | – | – |
| C=C1C(=O)OC2CC3(C)C=CC(=O)C(=C)C3CC12 (stereo not given) | – | 3.35 µM | 1.51 µM | 9.57 µM | 1.93 µM | 6.88 µM | 8.77 µM | 2.64 µM | – |
| C=C1C(=O)O[C@H]2C[C@@H](C)[C@@H]3CC(=O)OC[C@@]3(C)CC12 (stereo not given in full) | – | – | 74.3 µM | – | – | 52.2 µM | > 100 µM | > 100 µM | – |

| Structure (SMILES) | TGI (MDA-N) | TGI (XF 498 CNS) | TGI (DLD-1 colon) | TGI (DMS 114 small cell lung) | TGI (LXFL 529 NSCLC) | TGI (KM20L2 colon) | TGI (HOP-18 NSCLC) | TGI (DMS 273 small cell lung) | further results |
| --- | --- | --- | --- | --- | --- | --- | --- | --- | --- |
| Cc1ccc2c(c1)C1(C)OC(CC(N)C1O)O2 (stereo not given) | – | – | > 100 µM | > 100 µM | – | – | > 100 µM | > 100 µM | – |
| CC(C)(C(=O)NN)c1ccccc1 | > 100 µM | – | – | – | – | – | – | – | – |
| CN1CCc2c1nc(-c1ccccc1)c1c2N(C)CC1 | – | – | > 100 µM | – | > 100 µM | > 100 µM | 78.6 µM | > 100 µM | – |
| COc1ccccc1[N-]C(C1=C([O-])c2ccccc2C1=O)c1ccccc1.COc1ccccc1[N-]C(C1=C([O-])c2ccccc2C1=O)c1ccccc1.[Cu+2] (stereo not given) | – | – | > 100 µM | > 100 µM | > 100 µM | > 100 µM | 95.1 µM | > 100 µM | GI50 (RXF-631 renal): 12.7 µM; TGI (RXF-631 renal): > 100 µM; GI50 (DLD-1 colon): 3.7 µM; GI50 (DMS 114 small cell lung): 3.01 µM; GI50 (LXFL 529 NSCLC): 22.4 µM; GI50 (KM20L2 colon): 25.4 µM; GI50 (HOP-18 NSCLC): 18.3 µM; GI50 (DMS 273 small cell lung): 4.59 µM |
| CC1Oc2cc3c(-c4c(O)cc(O)c5c(O)c6c(cc45)OC(C)C(C)C6=O)c(O)cc(O)c3c(O)c2C(=O)C1C (stereo not given) | 1.58 µM | – | – | – | – | – | – | – | – |
| O=C(NCCCCCCNC(=O)c1cccc2ccccc12)c1cccc2ccccc12 | – | 9.97 µM | > 100 µM | > 100 µM | > 100 µM | > 100 µM | 76.8 µM | 3.46 µM | TGI (RXF-631 renal): > 100 µM |
| CN(C)c1ccc2c(NCCCCCCNc3ccnc4cc(N(C)C)ccc34)ccnc2c1 | – | 11.9 µM | > 100 µM | 66.6 µM | – | – | – | 21.3 µM | TGI (RXF-631 renal): > 100 µM |
| CCCC(O)[C@@H](O)c1ccc2c(c1O)C(=O)c1c(OC)cccc1C2=O (stereo not given in full) | – | 36.3 µM | > 100 µM | 61.9 µM | – | > 100 µM | > 100 µM | > 100 µM | TGI (RXF-631 renal): 75.4 µM |
| CCC[CH2][Sn]([CH2]CCC)([O]C(C)=O)[O]C(C)=O | – | 2.49 µM | 2.58 µM | – | 1.24 µM | 3.81 µM | 2.72 µM | 7.04 µM | GI50 (XF 498 CNS): 1.21 µM; GI50 (DLD-1 colon): 1.19 µM; GI50 (LXFL 529 NSCLC): 0.241 µM; GI50 (KM20L2 colon): 1.9 µM; GI50 (HOP-18 NSCLC): 1.42 µM; GI50 (DMS 273 small cell lung): 2.19 µM |
| CC1(Sc2ccccc2)CN(Cc2ccccc2)C1=O (stereo not given) | – | > 100 µM | > 100 µM | > 100 µM | – | > 100 µM | > 100 µM | > 100 µM | TGI (RXF-631 renal): > 100 µM |
| COC(=O)CCC(=O)N1Cc2cc(C)ccc2N(C(=O)CCC(=O)OC)Cc2cc(C)ccc21 | – | > 100 µM | > 100 µM | – | – | – | > 100 µM | > 100 µM | – |
| CC(=O)OC1c2ccccc2CC2(OC(C)=O)c3ccccc3C12 (stereo not given) | > 100 µM | – | – | – | – | – | – | – | – |
| COC(=O)C(CC(C)C)NC(=O)C(Cc1cnc[nH]1)NC(=O)CNC(=O)C(NC(=O)C(C)NC(=O)C(Cc1c[nH]c2ccccc12)NC(=O)C(CCC(=O)O)NC(=O)C(N)Cc1c(F)c(F)c(F)c(F)c1F)C(C)C (stereo not given) (H-[Phe(F5)]EWAVGHL-OMe; configuration not given here) | > 12.5 µM | > 100 µM | > 100 µM | > 100 µM | > 100 µM | > 100 µM | > 100 µM | > 100 µM | – |
| CCOC(=O)C=C1CCN(C(=O)c2ccccc2)CC1 | – | > 100 µM | > 100 µM | – | > 100 µM | > 100 µM | > 100 µM | > 100 µM | TGI (RXF-631 renal): > 100 µM |
| CC1=C2CCCC2C/C(=N/Nc2ccc([N+](=O)[O-])cc2[N+](=O)[O-])CC1 (stereo not given) | – | > 100 µM | – | > 100 µM | > 100 µM | > 100 µM | > 100 µM | > 100 µM | TGI (RXF-631 renal): > 100 µM |
| O=C1c2ccccc2C(=O)N1CC1(C(=O)O)NCCS1(=O)=O (stereo not given) | > 100 µM | – | – | – | – | – | – | – | – |
| CC1CC2C(=O)NC(=O)C2c2[nH]c3ccccc3c21 (stereo not given) | – | > 100 µM | > 100 µM | > 100 µM | > 100 µM | – | – | > 100 µM | – |
